Assay [1] concerns rat fat cells. Put plainly: Lipogenesis in isolated rat fat cells (insulin-like activity). The assay is classed as cell-based, rat (Wistar). Conditions: rat fat cells, 90 min, 37° C.; for EC50: concentration at 50% of the maximum stimulation achieved by the respective compound, read-out: Lipogenesis EC50; for Lipogenesis % Insmax / Emax: part of maximum stimulation factor of insulin (set at 100%), D-[3-3H]glucose; for Emax: read-out: Lipogenesis % Insmax. The protocol:
(§1) This example provides exemplary methods for determining insulin-like activity. The biological activity of the compounds of the formula I according to the invention is determined with the aid of isolated fat cells from the rat.
(§2) The preparation of fat cells from the rat was carried out as follows: White fatty tissue of the epididymis (Wistar rat, 160-180 g, no food restriction) is digested with collagenase and the resulting isolated fat cells are separated off by means of filtration of undigested tissue and washed by flotation several times using Krebs-Ringer-Henseleit buffer (KRH buffer).
This test determines the insulin-stimulable conversion of glucose into toluene-soluble products (triglycerides, phospholipids, fatty acids), which promotes glucose transport and triglyceride (glycerol-3-P synthesis, esterification)/phospholipid/fatty acid synthesis including the insulin signal transmission cascade. At a glucose concentration of 2.5 mM in the test, the esterification (and not the glycerol-3-P synthesis including glucose transport) is rate-determining for the stimulation of lipogenesis.
200 μl (3×10^5 cells/ml) of rat fat cells in KRH buffer are incubated at 37° C. for 90 min with 100 μl of D-[3-^3 H] glucose (25 mM, 0.4 μCi) in the presence or absence of insulin (10 ng/ml) or compound of the formula I according to the invention (final volume 1 ml). By addition of a toluene-soluble scintillation cocktail (10 ml), the cells are disrupted and the lipids are separated off from water-soluble products and the incubation medium. After phase separation, the radioactivity incorporated in lipid products is determined directly without removal of the aqueous phase by scintillation measurement ([^3 H]lipid [dpm×10^-3 ]). A control value (incubation under identical conditions but without cells) is subtracted from this radioactivity. The lipogenesis rate is linear up to 120 min. The maximum stimulation factor--this is the ratio of the incubation result with insulin to the incubation results without insulin--is set at 100%. The percentage data under "%Insmax " are parts of the maximum stimulation factor defined in this way. The term EC50 indicates the concentration of the compound of the formula I at which 50% of the maximum stimulation to be achieved by the respective compound of the formula I is to be observed.

The test system of assay [2] is rat fat cells. Briefly: Glucose transport in isolated rat fat cells (insulin-like activity). Conditions: rat fat cells, 2-[3H]-deoxyglucose; for EC50: concentration at 50% of the maximum stimulation achieved by the respective compound, read-out: Glucose transport EC50; for Glucose transport % Insmax / Emax: part of maximum stimulation factor of insulin (set at 100%), 15 min, 37° C.; for Emax: 0.25 h, read-out: Glucose transport % Insmax. It is filed as cell-based, rat (Wistar). The protocol:
as §1, §2
[…] After addition of 15 μl of 2-[^3 H]-deoxyglucose (0.3 mM, 0.2 μCi), the incubation is continued at room temperature. After specified times (0-20 min), 100 μl of the test batch are removed and transferred to a reaction vessel (contents 400 μl), in which 250 μl of dinonyl phthalate have been initially introduced. After centrifugation (15,000×g, 1 min), the cells are separated off from the oily layer of the incubation medium underneath the oily layer by cutting the tube at the level of the oily layer and transferring to a scintillation vessel. After addition of 5 ml of water-soluble scintillation fluid, the radioactivity is determined. This total cell-associated radioactivity is corrected for [^3 H]-deoxyglucose which has passively diffused into the cells and is included in the cell interstices by subtraction of a control value (incubation in the presence of the glucose transport inhibitor cytochalasin B). The initial (stimulated) glucose transport rate is linear up to 15 min. The maximum stimulation factor--this is the ratio of the incubation result with insulin to the incubation result without insulin--is set at 100%.
The terms "%Insmax " and "EC50 " are as defined under A) lipogenesis.

The term EC50 denotes the midpoint of the concentration-response curve. Consider “HO-SO2 -6Manα1(Manα1-2)-2Manα1-6Manα1-4GluNβ1-6(D)-inositol-1,2-(cyclic)-phosphate”, for which, in the assay on rat fat cells [1], the EC50 turned out to be 7 µM and the “Lipogenesis % Insmax” value came to 84%. Further, in the assay with rat fat cells [2], the EC50 worked out at 8 µM and the “Glucose transport % Insmax” value was found to be 36%.

As for `N[C@H]1[C@H](O[C@H]2[C@H](O)[C@@H](O)[C@H](OP(=O)(O)O)[C@H](O)[C@@H]2O)O[C@H](CO)[C@@H](O)[C@@H]1O[C@H]1O[C@H](CO[C@H]2O[C@H](CO[PH](=O)O)[C@@H](O)[C@H](O)[C@@H]2O[C@H]2O[C@H](CO[PH](=O)O)[C@@H](O)[C@H](O)[C@@H]2O)[C@@H](O)[C@H](O)[C@@H]1O` [Q, HO-PO(H)O-6Manα1-2Manα1(6-PO(H)OH)-6-Manα1-3GluNβ1-6(L)inositol-3-phosphate], in the assay on rat fat cells [1] (1.5 h), the EC50 is 40 µM and the Emax stood at 44%. Also, in the assay on rat fat cells [2], the Emax stood at 18% and the EC50 was determined as 30 µM.

In the case of `N[C@H]1[C@H](O[C@@H]2[C@@H](O)[C@H](O)[C@@H](O)[C@H]3OP(=O)(O)O[C@H]32)O[C@H](CO)[C@@H](O[C@H]2O[C@H](CO[C@H]3O[C@H](COS(=O)(=O)O)[C@@H](O)[C@H](O)[C@@H]3O[C@H]3O[C@H](COS(=O)(=O)O)[C@@H](O)[C@H](O)[C@@H]3O[C@H]3O[C@H](CO)[C@@H](O)[C@H](O)[C@@H]3O)[C@@H](O)[C@H](O)[C@@H]2O)[C@@H]1O` [N, HO-SO2 -O-6Manα1(Manα1-2)-2Manα1(6-HSO3)-6Manα1-4-GluNβ1-6(D)-inositol-1,2-(cyclic)-phosphate], the EC50 with rat fat cells [1] (1.5 h) was 3 µM; in the assay with rat fat cells [2], 5 µM. In addition, the results for the Emax in the assay on rat fat cells [1] (1.5 h) and in the assay on rat fat cells [2] were 96% and 52%, respectively.

`NC(=O)OC[C@H]1O[C@H](O[C@@H]2[C@@H](OC[C@H]3O[C@H](O[C@@H]4[C@@H](N)[C@H](O[C@H]5[C@H](O)[C@@H](O)[C@H](OP(=O)(O)O)[C@H](O)[C@@H]5O)O[C@H](CO)[C@H]4O)[C@@H](O)[C@@H](O)[C@@H]3O)O[C@H](COC(N)=O)[C@@H](O)[C@@H]2O)[C@@H](O[C@H]2O[C@H](CO)[C@@H](O)[C@H](O)[C@@H]2O)[C@@H](O)[C@@H]1O` [R, H2 N-CO-O-6Manα1(Manα1-2)-2Manα1(6-CO-NH2)-6Manα1-3GluNβ1-6(L)inositol-3-phosphate]: in the assay on rat fat cells [1] (1.5 h), the EC50 stood at 15 µM and the Emax is 48%. For the same molecule, in the assay on rat fat cells [2], the Emax was found to be 19% and the EC50 was 10 µM.

In the case of `N[C@H]1[C@@H](O[C@H]2[C@H](O)[C@@H](O)[C@H](O)[C@@H]3OP(=O)(O)O[C@H]23)O[C@H](CO)[C@@H](O[C@H]2O[C@H](CO[PH](=O)O)[C@@H](O)[C@H](O)[C@@H]2O)[C@@H]1O` [G, HO-PO(H)O-6Manα1-4GluNα1-6(L)inositol-1,2-(cyclic)-phosphate], the concentration for a half-maximal effect (EC50) in the assay with rat fat cells [1] (1.5 h) and in the assay on rat fat cells [2] was 15 µM each time. The Emax in the assay on rat fat cells [1] (1.5 h) is 25%; in the assay on rat fat cells [2], 9%.

As to `O=[PH](O)OC[C@H]1O[C@H](OC[C@H]2O[C@H](OC[C@H]3O[C@H](OC[C@H]4O[C@H](OC[C@H]5O[C@H](O[C@H]6[C@H](O)[C@@H](O)[C@H](OP(=O)(O)O)[C@H](O)[C@@H]6O)[C@@H](O)[C@@H](O)[C@@H]5O)[C@@H](O)[C@@H](O)[C@@H]4O)[C@@H](O)[C@@H](O)[C@@H]3O)[C@@H](O)[C@@H](O)[C@@H]2O)[C@@H](O)[C@@H](O)[C@@H]1O` [O, HO-PO(H)O-6-Manα1-6Manα1-6Manα-1-6Manα1-6Manα1-6(L)inositol-3-phosphate], in the assay with rat fat cells [1] (1.5 h), the half-maximal effective concentration (EC50) was 20 µM and the Emax was 10%. For the same molecule, in the assay with rat fat cells [2], the Emax was determined as 5% and the EC50 turned out to be 50 µM.

In the case of `N[C@H]1[C@H](O[C@H]2[C@H](O)[C@@H](O)[C@H](OP(=O)(O)O)[C@H](O)[C@@H]2O)O[C@H](CO)[C@@H](O)[C@@H]1O[C@H]1O[C@H](CO[C@H]2O[C@H](CO[PH](=O)O)[C@@H](O)[C@H](O)[C@@H]2O[C@H]2O[C@H](CO)[C@@H](O)[C@H](O)[C@@H]2O[C@H]2O[C@H](CO)[C@@H](O)[C@H](O)[C@@H]2O)[C@@H](O)[C@H](O)[C@@H]1O` [U, Manα1-2Manα1-2Manα1(6-PO(H)OH)-6Manα1-3GluNβ1-6(L)inositol-3-phosphate], in the assay on rat fat cells [1] (1.5 h), the EC50 amounted to 15 µM and the Emax stood at 80%. For the same molecule, in the assay on rat fat cells [2], the Emax was determined as 34% and the EC50 was determined as 15 µM.

For the molecule `NCCOP(=O)(O)OC[C@H]1O[C@H](OC[C@H]2O[C@H](O[C@H]3[C@H](O)[C@@H](N)[C@H](O[C@@H]4[C@@H](O)[C@H](O)[C@@H](O)[C@H]5OP(=O)(O)O[C@H]54)O[C@@H]3CO)[C@@H](OP(=O)(O)OCCN)[C@@H](O)[C@@H]2O)[C@@H](O[C@H]2O[C@H](CO[PH](=O)O)[C@@H](O)[C@H](O)[C@@H]2O[C@H]2O[C@H](CO)[C@@H](O)[C@H](O)[C@@H]2O)[C@@H](O)[C@@H]1O` [E, HO-PO(H)O-6Manα1(Manα1-2)-2Manα1(6-EtNP)-6Manα1(2-EtNP)-4GluNβ1-6(D)inositol-1,2-(cyclic)-phosphate], in the assay on rat fat cells [1] (1.5 h), the EC50 turned out to be 60 µM and the Emax worked out at 48%. Besides, in the assay on rat fat cells [2], the Emax came out at 34% and the concentration giving a half-maximal response (EC50) was 30 µM.

Regarding `N[C@H]1[C@@H](O[C@H]2[C@H](O)[C@@H](O)[C@H](O)[C@H](O)[C@@H]2O)O[C@H](CO)[C@@H](O[C@H]2O[C@H](CO[PH](=O)O)[C@@H](O)[C@H](O)[C@@H]2O)[C@@H]1O` [H, HO-PO(H)O-6Manα1-4GluNα1-6(L)inositol], in the assay with rat fat cells [1] (1.5 h), the EC50 came out at 25 µM and the Emax was determined as 15%. Besides, in the assay on rat fat cells [2], the Emax is 2% and the EC50 is 10 µM.

`N[C@H]1[C@H](O[C@H]2[C@H](O)[C@@H](O)[C@H](OP(=O)(O)O)[C@H](O)[C@@H]2O)O[C@H](CO)[C@@H](O)[C@@H]1O[C@H]1O[C@H](CO[C@H]2O[C@H](COS(=O)(=O)O)[C@@H](O)[C@H](O)[C@@H]2O[C@H]2O[C@H](COS(=O)(=O)O)[C@@H](O)[C@H](O)[C@@H]2O[C@H]2O[C@H](CO)[C@@H](O)[C@H](O)[C@@H]2O)[C@@H](O)[C@H](O)[C@@H]1O` [W, HO-SO2 -O-6Manα1(Manα1-2)-2-Manα1(6-HSO3)-6Manα1-3GluNβ1-6(L)inositol-3-phosphate]: in the assay on rat fat cells [1] (1.5 h), the EC50 worked out at 10 µM and the Emax was found to be 86%. In addition, in the assay on rat fat cells [2], the Emax came to 42% and the EC50 was 10 µM.

As for “HO-PO(H)O-6Manα1-6-Manα1-6Manα1-6Manα1-3GluNβ1-6(L)inositol-3-phosphate”, in the assay on rat fat cells [1], the EC50 was 20 µM and the “Lipogenesis % Insmax” value worked out at 18%. In the assay on rat fat cells [2], the EC50 turned out to be 50 µM and the “Glucose transport % Insmax” value amounted to 14%.

As to “H2 N-CO-6Manα1(Manα1-2)-2Manα1-6Manα1-4GluNβ1-6(D)-inositol-1,2-(cyclic)-phosphate [K]”, in the assay with rat fat cells [1], the concentration for a half-maximal effect (EC50) turned out to be 8 µM and the “Lipogenesis % Insmax” value was 72%. Further, in the assay with rat fat cells [2], the EC50 turned out to be 15 µM and the “Glucose transport % Insmax” value stood at 23%.

For “HO-PO(H)O-6-Manα1(Manα1-2)-2-Manα1-6Manα-3GluNβ1-6(L)-inositol-3-phosphate”, in the assay on rat fat cells [1], the EC50 is 20 µM and the “Lipogenesis % Insmax” value was 32%. In the assay with rat fat cells [2], the EC50 worked out at 20 µM and the “Glucose transport % Insmax” value was determined as 18%.

The values are drawn from patent US6004938A, “Inositolglycans having insulin-like action” (Hoescht Aktiengesellschaft, priority 1996, dated 1999).
